Data as given in patent publication US9604940B2 (Chroma Therapeutics Ltd., priority 2012, dated 2017).
Where a name gives a salt, the structure may show the parent alone.

How the values were obtained:
CSF1R (FMS) = target: T1, CSF1R (FMS) (Homo sapiens, UniProt P07333); experiment: CSF1R (FMS) kinase activity, Z'-LYTE biochemical assay (Invitrogen); conditions: ATP at or close to Km, 60 minute reaction at room temperature, read-out: Inhibitor activity versus CSF-1
T1 construct: purchased Invitrogen (Paisley, UK)
T1 sequence (P07333 20-972): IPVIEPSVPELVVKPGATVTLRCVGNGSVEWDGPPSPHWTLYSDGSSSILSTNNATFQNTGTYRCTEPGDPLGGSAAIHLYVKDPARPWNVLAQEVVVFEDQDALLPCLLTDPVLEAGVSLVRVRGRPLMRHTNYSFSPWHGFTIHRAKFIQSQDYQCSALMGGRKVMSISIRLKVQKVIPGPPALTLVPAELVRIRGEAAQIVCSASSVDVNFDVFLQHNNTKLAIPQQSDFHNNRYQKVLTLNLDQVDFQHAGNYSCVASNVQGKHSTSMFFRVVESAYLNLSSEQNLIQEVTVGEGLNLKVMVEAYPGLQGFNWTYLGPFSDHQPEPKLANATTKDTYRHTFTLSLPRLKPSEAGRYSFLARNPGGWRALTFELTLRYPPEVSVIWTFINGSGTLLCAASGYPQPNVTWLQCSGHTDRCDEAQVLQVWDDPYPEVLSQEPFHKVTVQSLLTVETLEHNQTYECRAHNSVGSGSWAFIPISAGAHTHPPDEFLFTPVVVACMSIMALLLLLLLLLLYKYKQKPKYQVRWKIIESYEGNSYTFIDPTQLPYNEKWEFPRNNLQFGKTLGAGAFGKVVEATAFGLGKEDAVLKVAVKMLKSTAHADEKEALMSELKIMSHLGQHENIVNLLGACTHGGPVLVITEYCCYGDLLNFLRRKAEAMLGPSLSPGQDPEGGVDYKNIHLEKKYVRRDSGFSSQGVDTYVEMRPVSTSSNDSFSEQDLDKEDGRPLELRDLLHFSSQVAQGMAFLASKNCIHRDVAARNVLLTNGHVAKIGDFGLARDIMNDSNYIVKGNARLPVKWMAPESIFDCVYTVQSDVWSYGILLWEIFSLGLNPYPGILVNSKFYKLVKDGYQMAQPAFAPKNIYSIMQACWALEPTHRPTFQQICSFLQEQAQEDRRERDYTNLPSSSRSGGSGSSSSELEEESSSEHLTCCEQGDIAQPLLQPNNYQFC
Protocol: CSF1R (FMS) Kinase Activity
The ability of compounds to inhibit CSF1R (FMS) kinase activity was measured in an assay performed by Invitrogen (Paisley, UK). The Z′-LYTE™ biochemical assay employs a fluorescence-based, coupled-enzyme format and is based on the differential sensitivity of phosphorylated and non-phosphorylated peptides to proteolytic cleavage. The peptide substrate is labelled with two fluorophores—one at each end—that make up a FRET pair. In the primary reaction, the kinase transfers the gamma-phosphate of ATP to a single […] residue in a synthetic FRET-peptide. In the secondary reaction, a site-specific protease recognizes and cleaves non-phosphorylated FRET-peptides. Phosphorylation of FRET-peptides suppresses cleavage by the Development Reagent. Cleavage disrupts FRET between the donor (i.e. coumarin) and acceptor (i.e. fluorescein) fluorophores on the FRET-peptide, whereas uncleaved, phosphorylated FRET-peptides maintain FRET. A […] method, which calculates the ratio (the Emission Ratio) of donor emission to acceptor emission after excitation of the donor fluorophore at 400 nm, is used to quantitate reaction progress.
The final 10 μL Kinase Reaction consists of 0.12-12.3 ng CSF1R (FMS), 2 μM Tyr 01 Peptide and ATP in 50 mM HEPES pH 7.5, 0.01% BRIJ-35, 10 mM MgCl2, 1 mM EGTA. The assay is performed at an ATP concentration at, or close to, the Km. After the 60 minute Kinase Reaction incubation at room temperature, 5 μL of a 1:256 dilution of Development Reagent is added. The assay plate is incubated for a further 60 minutes at room temperature and read on a fluorescence plate reader.
Duplicate data points are generated from a ⅓ log dilution series of a stock solution of test compound in DMSO. Nine dilutions steps are made from a top concentration of 10 mM, and a ‘no compound’ blank is included. Data is collected and analysed using XLfit software from IDBS. The dose response curve is curve fitted to model number 205 (sigmoidal dose-response model). From the curve generated, the concentration giving 50% inhibition is determined and reported.

MCP-1 = experiment: MCSF-stimulation of human whole blood, MCP-1 levels by sandwich ELISA; type: cell-based; conditions: inhibitor 2 hours before MCSF 50 ng/ml, 22 hrs, MCP-1 in cell-free supernatants, read-out: Inhibitor activity versus MCP-1
Protocol: Macrophage Colony-Stimulating Factor (MCSF)-Stimulation of Human Whole Blood
Whole blood was taken by venous puncture using heparinised vacutainers (Becton Dickinson) and diluted in an equal volume of RPMI1640 tissue culture media (Sigma). 100 μl was plated in V-bottomed 96 well tissue culture treated plates. 2 hours after the addition of the inhibitor in 100 μl of RPMI1640 media, the blood was stimulated with MCSF (Peprotech: #300-25-10 uG) at a final concentration of 50 ng/ml and incubated at 37° C. in 5% CO2 for 22 hrs. MCP-1 levels were measured from cell-free supernatants by sandwich ELISA developed from MCP-1/CCL2 Duoset (R&D Systems #DY279). Additional reagents required for ELISA were purchased from Sigma, (BSA: A3059, 10×PBS: D1408, Tween20: P5927) R&D Systems, (colour reagent: #DY999 and stop solution: #DY994) and Costar (96-well EIA plates: #2592). Assays were carried out following the manufacturer's instructions with the following modifications: Cell-free supernatants were diluted 30:70 in reagent diluent before assay. All incubations except capture antibody were carried out with shaking at 550 rpm. 3 washes were carried out between steps, and incubation times were blocking 1.5 hr, sample/standard and detection antibody incubations 2 hr, HRP incubation 30 min, colour development 20 min. • IC50 values were allocated to one of five ranges as follows: • Range A: IC50<100 nM • Range B: 100 nM<IC50<300 nM • Range C: 300 nM<1050<1000 nM • Range D: 1000 nM<IC50<5000 nM • Range E: IC50>5000 nM • NT=not tested

| IC50 (CSF1R (FMS)) | IC50 (MCP-1) | Compound |
| --- | --- | --- |
| 100 to 300 nM | 300 to 1000 nM | CC(C)(C)OC(=O)C1CN(C(=O)c2ccc(-c3cnc(N)c(NCc4c(Cl)cccc4Cl)n3)cc2)CCN1 (stereo not drawn) [Example 6, tert-Butyl 4-(4-{5-amino-6-[(2,6-dichlorobenzyl)amino]pyrazin-2-yl}benzoyl)piperazine-2-carboxylate] |
| > 5000 nM | > 5000 nM | CC(C)C[C@H](NCCn1cc(-c2cnc(N)c(NCc3c(Cl)cccc3Cl)n2)cn1)C(=O)OC(C)(C)C [Example 58, tert-Butyl N-[2-(4-{5-amino-6-[(2,6-dichlorobenzyl)amino]pyrazin-2-yl}-1H-pyrazol-1-yl)ethyl]-L-leucinate] |
| < 100 nM | 100 to 300 nM | Nc1ncc(-c2cccc(CNC3CCN[C@@H](C(=O)OC4CCCC4)C3)c2)nc1NCc1c(Cl)cccc1Cl (stereo partly drawn) [Example 34, Cyclopentyl (2R)-4-[(3-{5-amino-6-[(2,6-dichlorobenzyl)amino]pyrazin-2-yl}benzyl)amino]piperidine-2-carboxylate] |
| 1000 to 5000 nM |  | CC(C)(C)OC(=O)C(C)(C)NCc1cccc(-c2cnc(N)c(NCc3c(Cl)cccc3Cl)n2)c1 [Example 41, tert-Butyl N-(3-{5-amino-6-[(2,6-dichlorobenzyl)amino]pyrazin-2-yl}benzyl)-2-methylalaninate formate salt] |
| > 5000 nM | > 5000 nM | CC(C)(C)OC[C@H](NCc1cccc(-c2cnc(N)c(NCc3c(Cl)cccc3Cl)n2)c1)C(=O)OC(C)(C)C [Example 44, tert-Butyl N-(3-{5-amino-6-[(2,6-dichlorobenzyl)amino]pyrazin-2-yl}benzyl)-O-tert-butyl-L-serinate] |
| 1000 to 5000 nM |  | CC(C)C[C@H](NCc1ccc(-c2cnc(N)c(NCc3c(Cl)cccc3Cl)n2)cc1)C(=O)OC(C)(C)C [Example 13, tert-Butyl N-(4-{5-amino-6-[(2,6-dichlorobenzyl)amino]pyrazin-2-yl}benzyl)-L-leucinate] |
| > 5000 nM |  | CC(C)C[C@H](NCc1ccc(-c2cnc(N)c(NCc3c(Cl)cccc3Cl)n2)cc1)C(=O)OC1CCCC1 [Example 12, Cyclopentyl N-(4-{5-amino-6-[(2,6-dichlorobenzyl)amino]pyrazin-2-yl}benzyl)-L-leucinate] |
| 1000 to 5000 nM |  | CC(C)C[C@H](NCc1ccc(-c2cnc(N)c(NCc3c(F)cccc3F)n2)cc1)C(=O)OC(C)(C)C [Example 16, tert-Butyl N-(4-{5-amino-6-[(2,6-difluorobenzyl)amino]pyrazin-2-yl}benzyl)-L-leucinate] |
|  | 100 to 300 nM | Nc1ncc(-c2cccc(CCN3CCNC(C(=O)OC4CCCC4)C3)c2)nc1NCc1c(Cl)cccc1Cl (stereo not drawn) [Example 52, Cyclopentyl 4-[2-(3-{5-amino-6-[(2,6-dichlorobenzyl)amino]pyrazin-2-yl}phenyl)ethyl]piperazine-2-carboxylate] |
| 100 to 300 nM |  | CC(C)(C)OC(=O)[C@H]1CC(NC(=O)c2ccc(-c3cnc(N)c(NCc4c(Cl)cccc4Cl)n3)cc2)CCN1 (stereo partly drawn) [Example 4, tert-Butyl (2R)-4-[(4-{5-amino-6-[(2,6-dichlorobenzyl)amino]pyrazin-2-yl}benzoyl)amino]piperidine-2-carboxylate] |

The remaining lines, values behind:

| Compound | IC50 (CSF1R (FMS)) | IC50 (MCP-1) |
| --- | --- | --- |
| CCN(Cc1ccc(-c2cnc(N)c(NCc3c(Cl)cccc3Cl)n2)cc1)C1CCN[C@@H](C(=O)OC2CCCC2)C1 (stereo partly drawn) [Example 27, Cyclopentyl (2R)-4-[(4-{5-amino-6-[(2,6-dichlorobenzyl)amino]pyrazin-2-yl}benzyl)(ethyl)amino]piperidine-2-carboxylate] | 100 to 300 nM | < 100 nM |
| Nc1ncc(-c2ccc(CNC3CCN[C@@H](C(=O)OC4CCCC4)C3)cc2)nc1NCc1c(F)cccc1F (stereo partly drawn) [Example 14, Cyclopentyl (2R)-4-[(4-{5-amino-6-[(2,6-difluorobenzyl)amino]pyrazin-2-yl}benzyl)amino]piperidine-2-carboxylate di-formate] | 100 to 300 nM | 300 to 1000 nM |
| CC(C)(C)OC(=O)[C@H]1CC(NC(=O)Cn2cc(-c3cnc(N)c(NCc4c(Cl)cccc4Cl)n3)cn2)CCN1 (stereo partly drawn) [Example 54, tert-Butyl (2R)-4-{[(4-{5-amino-6-[(2,6-dichlorobenzyl)amino]pyrazin-2-yl}-1H-pyrazol-1-yl)acetyl]amino}piperidine-2-carboxylate] | 100 to 300 nM |  |
| Cc1cc(-c2cnc(N)c(NCc3c(Cl)cccc3Cl)n2)ccc1CNC1CCN[C@@H](C(=O)OC2CCCC2)C1 (stereo partly drawn) [Example 19, Cyclopentyl (2R)-4-[(4-{5-amino-6-[(2,6-dichlorobenzyl)amino]pyrazin-2-yl}-2-methylbenzyl)amino]piperidine-2-carboxylate] | < 100 nM | < 100 nM |
| Nc1ncc(-c2cccc(CN3CCN[C@@H](C(=O)OC4CCCC4)C3)c2)nc1NCc1c(Cl)cccc1Cl [Example 37, Cyclopentyl (2R)-4-(3-{5-amino-6-[(2,6-dichlorobenzyl)amino]pyrazin-2-yl}benzyl)piperazine-2-carboxylate] | 300 to 1000 nM | < 100 nM |
| Nc1ncc(-c2ccc(CN3CCNC(C(=O)OC4CCCC4)C3)nc2)nc1NCc1c(Cl)cccc1Cl (stereo not drawn) [Example 59, Cyclopentyl 4-[(5-{5-amino-6-[(2,6-dichlorobenzyl)amino]pyrazin-2-yl}pyridin-2-yl)methyl]piperazine-2-carboxylate] | 100 to 300 nM |  |
| Nc1ncc(-c2ccc(CN3CCN[C@H](C(=O)OC4CCCC4)C3)cc2)nc1NCc1c(Cl)cccc1Cl [Example 10, Cyclopentyl (2S)-4-(4-{5-amino-6-[(2,6-dichlorobenzyl)amino]pyrazin-2-yl}benzyl)piperazine-2-carboxylate] | 1000 to 5000 nM | < 100 nM |
| Nc1ncc(-c2ccc(CN3CCN[C@@H](C(=O)OC4CCCC4)C3)cc2)nc1NCc1c(Cl)cccc1Cl [Example 11, Cyclopentyl (2R)-4-(4-{5-amino-6-[(2,6-dichlorobenzyl)amino]pyrazin-2-yl}benzyl)piperazine-2-carboxylate] | 300 to 1000 nM | < 100 nM |
| CC(C)C[C@H](NCc1ccc(-c2cnc(N)c(NCc3c(F)cccc3F)n2)cc1)C(=O)OC1CCCC1 [Example 15, Cyclopentyl N-(4-{5-amino-6-[(2,6-difluorobenzyl)amino]pyrazin-2-yl}benzyl)-L-leucinate] | > 5000 nM |  |
| Nc1ncc(-c2ccc(CNC3CCN[C@@H](C(=O)OC4CCCC4)C3)cc2)nc1NCc1c(F)cccc1Cl (stereo partly drawn) [Example 17, Cyclopentyl (2R)-4-[(4-{5-amino-6-[(2-chloro-6-fluorobenzyl)amino]pyrazin-2-yl}benzyl)amino]piperidine-2-carboxylate] | < 100 nM |  |
| CC(C)(C)OC(=O)[C@H]1CC(NCc2ccc(-c3cnc(N)c(NCc4c(F)cccc4F)n3)cc2)CCN1 (stereo partly drawn) [Example 24, tert-Butyl (2R)-4-[(4-{5-amino-6-[(2,6-difluorobenzyl)amino]pyrazin-2-yl}benzyl)amino]piperidine-2-carboxylate] | 300 to 1000 nM |  |
| CC(C)CN(Cc1ccc(-c2cnc(N)c(NCc3c(Cl)cccc3Cl)n2)cc1)C1CCN[C@@H](C(=O)OC2CCCC2)C1 (stereo partly drawn) [Example 29, Cyclopentyl (2R)-4-[(4-{5-amino-6-[(2,6-dichlorobenzyl)amino]pyrazin-2-yl}benzyl)(2-methylpropyl)amino]piperidine-2-carboxylate] |  | 1000 to 5000 nM |
| Nc1ncc(-c2cnn(CC(=O)NC3CCN[C@@H](C(=O)OC4CCCC4)C3)c2)nc1NCc1c(Cl)cccc1Cl (stereo partly drawn) [Example 53, Cyclopentyl (2R)-4-{[(4-{5-amino-6-[(2,6-dichlorobenzyl)amino]pyrazin-2-yl}-1H-pyrazol-1-yl)acetyl]amino}piperidine-2-carboxylate] | 100 to 300 nM |  |
